Data set [1] relates to prostate specific antigen (PSA). The experiment in a line: Inhibition of prostate specific antigen (PSA) in LNCaP cells induced with R1881. Format: cell-based. The note with it: Homo sapiens, read-out: LNCaP (IC50, nM). The protocol: (§1) The in vitro biological activity of test compounds of the present invention as androgen receptor antagonist can be tested by the methods as reported in J. Medcinal Chemistry (2010, page 2779-2796 and WO201 1/029392).
(§2) The inhibition activity of these compounds on prostate specific antigen (PSA) was determined using prostate cancer cells (LNCaP and 22RV1). Prostate cancer cells (LNCaP and 22RV1) could be purchased from ATCC, USA. The expression of PSA in cells was induced with the artificially synthesized androgen R1881 (methyltrienolone, androgen receptor activator) to increase the sensitivity of inhibition experiment.

In data set [2] the test system is human prostate cancer 22RV1 cells. The data set is described as follows: Inhibition of the growth of prostate cancer cells (MTT), 22RV1. The class given is cell-based. The protocol:
(§3) The ability of compounds to inhibit the growth of prostate cancer cells was tested:
(§4) First, the human prostate cancer LNCaP (purchased from ATCC, USA) and 22RV1 (purchased from SIBS) cells were transferred to a RPMI1640 culture medium containing 10% charcoal-stripped fetal bovine serum (FBS). After cultured for three days, the cells were digested with 0.25% trypsin and counted through trypan blue staining. The cells were plated, with 100 μL cell suspension containing 5000 cells per well. 200 μL medium was added to the wells around the cell plate for avoiding edge effects.
(§5) The cell plate was placed in a cell incubator for 30 min, 10 μL of 4 nM R1881 was added into each well and homogeneously mixed. Upon the addition of R1881, the cell plate was placed in a cell incubator and incubated at 37° C., under 5% CO2 for 96 hours. Afterwards, 40 μL of MTT (prepared in PBS, concentration is 2.5 mg/mL) was added into each wells, and incubated at 37° C. for 2 hours. The supernatant was sucked off, and 100 μL of DMSO was added into each well. The plate was shaken by a vibrator for 10 min for dissolving formazan. The plate was read at 570 nm wavelength using a microplate reader in the unit of OD.

For data set [3], the system named is human prostate cancer LNCaP cells. The data set is described as follows: Inhibition of the growth of prostate cancer cells (MTT), LNCaP. The class given is cell-based. The protocol: as §3, §4, §5
Data set [4] deals with prostate specific antigen (PSA). The experiment in a line: Inhibition of prostate specific antigen (PSA) in 22RV1 cells induced with R1881. Format: cell-based. Particulars: Homo sapiens, 22Rv1, read-out: 22RV1 (IC50, nM). The procedure: as §1, §2
Data set [5] in a line: Pharmacokinetic evaluation in mice. Format: in vivo, Kunming mice (KM mice). The note with it: male KM mice, 10 mg/kg intragastrically; for Cmax / Tmax: Kunming (KM), mouse, plasma, po, DMSO:PEG400:H2O 1:5:14. The procedure:
Compounds were dissolved in DMSO:PEG400:H2O 1:5:14. The volume of administration was 10 mL/kg. Before testing, the mice fasted for 12 h and drunk water ad libitum. Then, the mice were fed together at 2 h after administration. 0.3 mL of blood were took from 3 mice through retrobulbar venous plexus at 0.5, 1.0, 2.0, 4.0, 6.0 and 24 h after administration, placed in heparinized tubes, and centrifuged for 5 min at 11000 rpm. The plasma was separated and frozen in a refrigerator at −20° C. 100 uL of serum was transferred with a pipettor into a clean plastic centrifuge tube marked with compound's name and time point, and diluted with acetonitrile (CH3CN) and centrifuged. The concentration of drug was analyzed by LC-MS. Serum was stored at −80° C. before analysis.

[6] abbreviates: Homo sapiens, 22Rv1, 96 h, read-out: 22RV1 (IC50, uM).
Where [7] appears, read: Homo sapiens, LNCaP, 96 h, read-out: LNCaP (IC50, uM).
Where [8] appears, read: Homo sapiens, growth inhibition, 22RV1 cells, R1881 added, 96 hours, MTT, read-out: 22RV1 (IC50).
The mark [9] stands for this setting: Homo sapiens, growth inhibition, LNCaP cells, R1881 added, 96 hours, MTT, read-out: LNCaP (IC50).
Setting [10] is: growth inhibition, LNCaP cells, R1881 added, 96 hours, MTT, read-out: LNCaP (IC50).

Like-named read-outs stand apart in the source and are kept apart here.

In the case of `CNC(=O)c1ccc(N2C(=S)N(c3ccc(C#N)c(C(F)(F)F)c3)C(=O)C23CCC3)cc1F` [Example 1, reference compound], the IC50 (commonly the concentration at which inhibition is half-maximal) in data set [1] is less than 1000 nM; in data set [2] (setting [6]) it was 26 µM; in data set [3] (setting [7]) it was 4.09 µM; in data set [4], less than 2000 nM.

Take `CN(C)C(=O)c1ccc(N2C(=S)N(c3ccc(C#N)c(C(F)(F)F)c3)C(=O)C23CCC3)cc1F` [Example 2]: the IC50 in data set [1] is less than 800 nM; in data set [2] (setting [8]), 20.8 µM; in data set [3] (setting [9]), 1.37 µM; in data set [4], less than 1600 nM.

In the case of `[2H]C([2H])([2H])NC(=O)c1ccc(N2C(=S)N(c3ccc(C#N)c(C(F)(F)F)c3)C(=O)C23CCC3)cc1F` [Example 3], the IC50 in data set [1] was less than 400 nM; in data set [2] (setting [6]), 15 µM; in data set [3] (setting [7]) it was 0.36 µM; in data set [4], less than 1000 nM.

In the case of `CNC(=O)c1ccc(N2C(=S)N(c3ccc(C#N)c(C(F)(F)F)c3)C(=O)C2(C)C)cc1F` [Example 4, 4-{7-[4-cyano-3-(trifluoromethyl)phenyl]-5,5-dimethyl-4-oxo-2-thio-1-imidazolidinyl}-2-fluoro-N-methyl-benzamide, reference compound], in data set [5], the concentration peaked (Cmax) at 8450 ng/mL and the Tmax (usually the time at which the peak concentration occurs) worked out at 6 h.

Take `CN(C)C(=O)c1ccc(N2C(=S)N(c3ccc(C#N)c(C(F)(F)F)c3)C(=O)C2(C)C)cc1F` [Example 5, 4-{7-[4-cyano-3-(trifluoromethyl)phenyl]-5,5-dimethyl-4-oxo-2-thio-1-imidazolidinyl}-2-fluoro-N,N-dimethyl benzamide]: the IC50 is less than 800 nM in data set [1], 23.4 µM in data set [2] (setting [8]), 2.07 µM in data set [3] (setting [9]) and less than 1600 nM in data set [4].

Take `[2H]C([2H])([2H])NC(=O)c1ccc(N2C(=S)N(c3ccc(C#N)c(C(F)(F)F)c3)C(=O)C2(C)C)cc1F` [Example 6, 4-{7-[4-cyano-3-(trifluoromethyl)phenyl]-5,5-dimethyl-4-oxo-2-thio-1-imidazolidinyl}-2-fluoro-N-trideuteromethylbenzamide]: in data set [5], the Cmax (in general, the highest concentration seen after dosing) is 10400 ng/mL; the Tmax stood at 6 h; the “AUC compared with undeuterated compound 17” value was “significantly increased”; the “Cmax increase compared with undeuterated compound 17” value is “at least 20%”.

Take `[2H]c1cc(N2C(=S)N(c3ccc(C#N)c(C(F)(F)F)c3)C(=O)C2(C)C)ccc1C(=O)NC` [Example 11, 4-{7-[4-cyano-3-(trifluoromethyl)phenyl]-5,5-dimethyl-4-oxo-2-thio-1-imidazolidinyl}-2-deutero-N-methyl benzamide]: the IC50 in data set [2] (setting [6]) was found to be 18.9 µM; in data set [3] (setting [7]), 1.75 µM.

With `CNC(=O)c1ccc(N2C(=S)N(c3ccc(C#N)c(C(F)(F)F)c3)C(=O)C2(C)C)cc1` [Example 12, 4-{7-[4-cyano-3-(trifluoromethyl)phenyl]-5,5-dimethyl-4-oxo-2-thio-1-imidazolidinyl}-2-deutero-N-trideuteromethyl benzamide], the IC50 in data set [2] (growth inhibition, 22RV1 cells, R1881 added, 96 hours, MTT, read-out: 22RV1 (IC50)) was determined as 25.8 µM; in data set [3] (setting [10]) it was 2.42 µM.

For `CNC(=O)c1ccc(N2C(=S)N(c3ccc(C#N)c(C(F)(F)F)c3)C(=O)C2(C)C)cc1F` [Example 14, 4-{7-[4-cyano-3-trifluoromethyl-2,6-dideuterophenyl]-5,5-dimethyl-4-oxo-2-thio-1-imidazolidinyl}-2-fluoro-N-trideuteromethyl benzamide], in data set [3] (setting [10]), the IC50 came to 1.5 µM.

For `CC(O)(CS(=O)(=O)c1ccc(F)cc1)C(=O)Nc1ccc(C#N)c(C(F)(F)F)c1` (centres unmarked) [bicalutamide, reference compound], the IC50 in data set [2] (setting [8]) came to 30.9 µM; in data set [3] (setting [9]) it was 18.4 µM.

The values are drawn from patent US9346764B2, “Imidazolidinedione compounds and their uses” (HINOVA PHARMACEUTICALS INC., priority 2011, dated 2016).
